Reference: patent US8916702B2 (priority 2012, dated 2014)
Read-outs that look alike come from different tables or passages of the source.

Test system: HCV pseudoparticles (genotype 1a HCV E1 and E2 envelope, H77C isolate)
Assay: microbe, parasite or virus in culture
Format: cell-based
Conditions: Hepatitis C virus
[1] = Huh-7, 48 h, read-out: Activity (EC50 class), HCV pseudoparticles, Huh7 cells, luciferase 2 days after infection, average of duplicates
[2] = Huh-7, 48 h, read-out: Activity (EC50 class), HCV pseudoparticle infection of Huh7 cells, luciferase 2 days after infection, EC50 expressed as class A/B
[3] = Huh-7, 48 h, HCV pseudoparticle infection of Huh7 cells, luciferase 2 days after infection, average of duplicates
[4] = Huh-7, read-out: Activity (EC50 class), HCV pseudoparticles (genotype 1a, H77C) in Huh7 cells, EC50 expressed as class A/B
[5] = Huh-7, 48 h, HCV pseudoparticles (genotype 1a, H77C) in Huh7 cells, average of duplicate, luciferase 2 days after infection

Work on COC(=O)[C@H](CNC(=O)C(=O)Nc1ccc(O)nc1)NC(=O)c1ccc(Nc2nc(NC3(c4ccc(Cl)cc4)CC3)nc(OCC(F)(F)F)n2)cc1 [Compound 3722] yielded an EC50 [1] of 10 to 10000 pM.
CC(C)(CNC(=O)C(=O)Nc1cccc(-c2ccc(Cl)cc2)c1)CNC(=O)c1ccc(Nc2nc(NC3(c4ccc(Cl)cc4)CC3)nc(OCC(F)(F)F)n2)cc1 [Compound 1586] showed an EC50 [2] of 10 to 10000 pM.
With CCOC(=O)[C@H](CNC(=O)C(N)=O)NC(=O)c1ccc(Nc2nc(NC3(c4ccc(Cl)cc4)CC3)nc(OCC(F)(F)F)n2)cc1 [Compound 1025, (S)-ethyl 3-(2-amino-2-oxoacetamido)-2-(4-(4-(1-(4-chlorophenyl)cyclopropylamino)-6-(2,2,2-trifluoroethoxy)-1,3,5-triazin-2-ylamino)benzamido)propanoate] the EC50 [3] was 1730 pM and the EC50 [2] was 10 to 10000 pM.
O=C(NC[C@H](NC(=O)c1ccc(Nc2nc(NC3(c4ccc(Cl)cc4)CC3)nc(OCC(F)(F)F)n2)cc1)C(=O)O)C(=O)Nc1ccc(Oc2ccccc2)nc1 [Compound 3771] gave an EC50 [1] of 10 to 10000 pM.
COC(=O)[C@H](CNC(=O)C(=O)NC1CCCCC1O)NC(=O)c1ccc(Nc2nc(NC3(c4ccc(Cl)cc4)CC3)nc(OCC(F)(F)F)n2)cc1 (stereo partly drawn) [Compound 1051] gave an EC50 [2] of 10 to 10000 pM.
CC(C)CNC(=O)C(=O)NCC(C)(C)CNC(=O)c1ccc(Nc2nc(NC3(c4ccc(Cl)cc4)CC3)nc(OCC(F)(F)F)n2)cc1 [Compound 1551] was tested, and the EC50 [2] was 10 to 10000 pM.
Work on CC(C)(CNC(=O)C(=O)Nc1nc2c(Cl)cccc2s1)CNC(=O)c1ccc(Nc2nc(NC3(c4ccc(Cl)cc4)CC3)nc(OCC(F)(F)F)n2)cc1 [Compound 3815] yielded an EC50 [1] of 10 to 10000 pM.
COC(=O)[C@H](CNC(=O)C(=O)Nc1ccc(-c2ncco2)cc1)NC(=O)c1ccc(Nc2nc(NC3(c4ccc(Cl)cc4)CC3)nc(OCC(F)(F)F)n2)cc1 [Compound 3209] showed an EC50 [4] of 10 to 10000 pM.
With CC(C)(CNC(=O)C(=O)Nc1ccc2nccnc2c1)CNC(=O)c1ccc(Nc2nc(NC3(c4ccc(Cl)cc4)CC3)nc(OCC(F)(F)F)n2)cc1 [Compound 3026] the EC50 [4] was 10 to 10000 pM.
For Cc1ccc(NC(=O)C(=O)NCC(C)(C)CNC(=O)c2ccc(Nc3nc(NC4(c5ccc(Cl)cc5)CC4)nc(OCc4ccc(C(C)C)cc4)n3)cc2)cc1 [Compound 3839], the EC50 (Huh-7, 48 h, HCV pseudoparticles, Huh7 cells, luciferase 2 days after infection, average of duplicates) was 78 pM and the EC50 [1] was 10 to 10000 pM.
C[C@H](NC(=O)C(=O)NCC[C@H](NC(=O)c1ccc(Nc2nc(NC3(c4ccc(Cl)cc4)CC3)nc(OCC(F)(F)F)n2)cc1)C(=O)O)C1CCCCC1 [Compound 1212] showed an EC50 [3] of 70 pM and an EC50 [2] of 10 to 10000 pM.
CC(C)(CNC(=O)C(=O)N1CCc2cc(F)ccc21)CNC(=O)c1ccc(Nc2nc(NC3(c4ccc(Cl)cc4)CC3)nc(OCC(F)(F)F)n2)cc1 [Compound 1585] showed an EC50 [3] of 30 pM and an EC50 [2] of 10 to 10000 pM.
With COC(=O)[C@H](CNC(=O)C(=O)Nc1ccc(-n2cnc(Cl)c2Cl)cc1)NC(=O)c1ccc(Nc2nc(NC3(c4ccc(Cl)cc4)CC3)nc(OCC(F)(F)F)n2)cc1 [Compound 3095] the EC50 [4] was 10 to 10000 pM.
Cn1ccc(NC(=O)C(=O)NCC(C)(C)CNC(=O)c2ccc(Nc3nc(NC4(c5ccc(Cl)cc5)CC4)nc(OCC(F)(F)F)n3)cc2F)n1 [Compound 3567] gave an EC50 [5] of 35 pM and an EC50 [4] of 10 to 10000 pM.
Compound CCOc1ccc(NC(=O)C(=O)NC[C@H](NC(=O)c2ccc(Nc3nc(NC4(c5ccc(Cl)cc5)CC4)nc(OCC(F)(F)F)n3)cc2)C(=O)O)cc1 [Compound 3293] has an EC50 [4] of 10 to 10000 pM.
For COC(=O)[C@H](CCNC(=O)C(=O)Nc1cncn1C)NC(=O)c1ccc(Nc2nc(NC3(c4ccc(Cl)cc4)CC3)nc(OCC(F)(F)F)n2)cc1 [Compound 1225], the EC50 [2] was 10 to 10000 pM.
COC(=O)[C@H](CCNC(=O)C(=O)NC(COCc1ccccc1)C1CC1)NC(=O)c1ccc(Nc2nc(NC3(c4ccc(Cl)cc4)CC3)nc(OCC(F)(F)F)n2)cc1 (stereo partly drawn) [Compound 1370] gave an EC50 [2] of 10 to 10000 pM.
CC(C)(C)OC(=O)NC1(CNC(=O)C(=O)NCC[C@H](NC(=O)c2ccc(Nc3nc(NC4(c5ccc(Cl)cc5)CC4)nc(OCC(F)(F)F)n3)cc2)C(=O)O)CC1 [Compound 1425] was tested, and the EC50 [2] was 10 to 10000 pM.
For CC(C)(CNC(=O)C(=O)Nc1ccc(C(=O)c2ccc(N)cc2)cc1)CNC(=O)c1ccc(Nc2nc(NC3(c4ccc(Cl)cc4)CC3)nc(OCC(F)(F)F)n2)cc1 [Compound 3264], the EC50 [5] was 240 pM and the EC50 [4] was 10 to 10000 pM.
For COC(=O)[C@H](CNC(=O)C(=O)NCc1cccc(OC)c1)NC(=O)c1ccc(Nc2nc(NC3(c4ccc(Cl)cc4)CC3)nc(OCC(F)(F)F)n2)cc1 [Compound 1151], the EC50 [3] was 1620 pM and the EC50 [2] was 10 to 10000 pM.
For COC(=O)[C@H](CCNC(=O)C(=O)NC(C)C1CC1)NC(=O)c1ccc(Nc2nc(NC3(c4ccc(Cl)cc4)CC3)nc(OCC(F)(F)F)n2)cc1 (stereo partly drawn) [Compound 1417], the EC50 [3] was 160 pM and the EC50 [2] was 10 to 10000 pM.
COC(=O)[C@H](CNC(=O)C(=O)Nc1ccc(-n2cncn2)cc1)NC(=O)c1ccc(Nc2nc(NC3(c4ccc(Cl)cc4)CC3)nc(OCC(F)(F)F)n2)cc1 [Compound 3101] gave an EC50 [4] of 10 to 10000 pM.
For Cc1ccc(NC(=O)C(=O)NCC(C)(C)CNC(=O)c2ccc(Nc3nc(NC4(c5ccc(Cl)cc5)CC4)nc(OCC(F)(F)F)n3)cc2)c(C)c1 [Compound 3055], the EC50 [5] was 9.5 pM and the EC50 [4] was 10 to 10000 pM.
Work on COC1CCCCC1CNC(=O)C(=O)NCC[C@H](NC(=O)c1ccc(Nc2nc(NC3(c4ccc(Cl)cc4)CC3)nc(OCC(F)(F)F)n2)cc1)C(=O)O (stereo partly drawn) [Compound 1182] yielded an EC50 [2] of 10 to 10000 pM.
In the case of CC(C)(CNC(=O)C(=O)Nc1ccc(CCC(=O)O)cc1)CNC(=O)c1ccc(Nc2nc(NC3(c4ccc(Cl)cc4)CC3)nc(OCC(F)(F)F)n2)cc1 [Compound 1483], the EC50 [2] is reported as 10 to 10000 pM.
CCOCCOc1ccc(NC(=O)C(=O)NCCC(NC(=O)c2ccc(Nc3nc(NC4(c5ccc(Cl)cc5)CC4)nc(OCC(F)(F)F)n3)cc2)C(=O)O)cc1 (stereo not drawn) [Compound 3530] gave an EC50 [4] of 10 to 10000 pM.
Compound COC(=O)[C@H](CNC(=O)C(=O)Nc1cccc(S(=O)(=O)c2ccccc2)c1)NC(=O)c1ccc(Nc2nc(NC3(c4ccc(Cl)cc4)CC3)nc(OCC(F)(F)F)n2)cc1 [Compound 3701] has an EC50 [1] of 10 to 10000 pM.
COC(=O)[C@H](CCNC(=O)C(=O)N(C)C)NC(=O)c1ccc(Nc2nc(NC3(c4ccc(Cl)cc4)CC3)nc(OCC(F)(F)F)n2)cc1 [Compound 1011, (S)-methyl 2-(4-(4-(1-(4-chlorophenyl)cyclopropylamino)-6-(2,2,2-trifluoroethoxy)-1,3,5-triazin-2-ylamino)benzamido)-4-(2-(dimethylamino)-2-oxoacetamido)butanoate] showed an EC50 [2] of 10 to 10000 pM.
CN(C(=O)C(=O)NC[C@H](NC(=O)c1ccc(Nc2nc(NC3(c4ccc(Cl)cc4)CC3)nc(OCC(F)(F)F)n2)cc1)C(=O)O)c1ccccc1 [Compound 1365] showed an EC50 [2] of 10 to 10000 pM.
Compound COC(=O)[C@H](CCNC(=O)C(=O)NCC1CCCCC1)NC(=O)c1ccc(Nc2nc(NC3(c4ccc(Cl)cc4)CC3)nc(OCC(F)(F)F)n2)cc1 [Compound 1143] has an EC50 [2] of 10 to 10000 pM.
With O=C(NCC[C@H](NC(=O)c1ccc(Nc2nc(NC3(c4ccc(Cl)cc4)CC3)nc(OCC(F)(F)F)n2)cc1)C(=O)O)C(=O)Nc1cccc(-n2ccnc2)c1 [Compound 3659] the EC50 [1] was 10 to 10000 pM.
Work on O=C(NCC[C@H](NC(=O)c1ccc(Nc2nc(NC3(c4ccc(Cl)cc4)CC3)nc(OCC(F)(F)F)n2)cc1)C(=O)O)C(=O)Nc1ccc(N2CCN(Cc3ccccc3)CC2)cc1 [Compound 3232] yielded an EC50 [4] of 10 to 10000 pM.
With O=C(NCC[C@H](NC(=O)c1ccc(Nc2nc(NC3(c4ccc(Cl)cc4)CC3)nc(OCC(F)(F)F)n2)cc1)C(=O)O)C(=O)Nc1cccc(Cc2ccccn2)c1 [Compound 3650] the EC50 [1] was 10 to 10000 pM.
